This note sets out measurements from ChEMBL document CHEMBL1255306, “Potential basis for amphotericin B resistance in Aspergillus terreus” (2008).

Broadly, the MIC is the least concentration at which growth counts as inhibited. High values mean a less susceptible organism, low ones a more susceptible organism.

Test [1] deals with Aspergillus terreus. Kind of test: Antimicrobial activity against AMB-resistant Aspergillus terreus assessed as high malonaldehyde activity at 10 ug/ml after 8 hrs by thiobarbituric acid test. The test is classed as functional, organism-based.
The test system of test [2] is Aspergillus terreus. Kind of test: Antimicrobial activity against AMB-resistant Aspergillus terreus assessed as catalase activity after 24 to 48 hrs. The test is classed as functional, organism-based.
For test [3], the system named is Aspergillus terreus. Kind of test: Antimicrobial activity against Aspergillus terreus conidia by CLSI M38-A broth microdilution method. In kind it is functional. A general note: In broth dilution the organism is exposed to a series of concentrations in liquid medium.
The subject of test [4] is Aspergillus fumigatus. Kind of test: Antimicrobial activity against […] Aspergillus fumigatus assessed as high malonaldehyde activity at 10 ug/ml after 8 hrs by thiobarbituric acid test. In kind it is functional, organism-based.
Test [5] concerns Aspergillus terreus. In words: Antimicrobial activity against AMB-resistant Aspergillus terreus assessed as high malonaldehyde activity at 5 ug/ml after 8 hrs by thiobarbituric acid test. In kind it is functional, organism-based.
Test [6] deals with Aspergillus fumigatus. In words: Antimicrobial activity against […] Aspergillus fumigatus assessed as catalase activity after 24 to 48 hrs. The test is classed as functional, organism-based.
The subject of test [7] is Aspergillus terreus. In words: Antimicrobial activity against Aspergillus terreus protoplast by CLSI M38-A broth microdilution method. The test is classed as functional.
Test [8] has as its system Aspergillus fumigatus. Kind of test: Antimicrobial activity against […] Aspergillus fumigatus assessed as high malonaldehyde activity at 5 ug/ml after 8 hrs by thiobarbituric acid test. In kind it is functional, organism-based.

Each structure is given as a SMILES string. Converted amounts (≈) assume the structure as drawn. The source made the active and inactive calls. No cut-off for these calls is given here.

Turning to `C[C@@H]1[C@H](O)[C@@H](C)/C=C/C=C/C=C/C=C/C=C/C=C/C=C/[C@H](O[C@@H]2O[C@H](C)[C@@H](O)[C@H](N)[C@@H]2O)C[C@@H]2O[C@](O)(C[C@@H](O)C[C@@H](O)[C@H](O)CC[C@@H](O)C[C@@H](O)CC(=O)O[C@H]1C)C[C@H](O)[C@H]2C(=O)O` [AMPHOTERICIN B], the outcome in test [1], in test [2], in test [4], in test [5] and in test [8] was Active. In addition, the MIC was 1.7 µg/mL (≈ 1.84 µM) in test [3] and 1.41 µg/mL (≈ 1.53 µM) in test [7]. The result in test [6] was inactive.
